{"source": "paper PMC6661730", "about": "“Biochemical characterization of a novel exo-oligoxylanase from Paenibacillus barengoltzii suitable for monosaccharification from corncobs” (Biotechnology for Biofuels, 2019)", "target": "T1, PbRex8 (Paenibacillus barengoltzii, UniProt R9L536)", "T1 construct": "gene C812_03928; full-length ORF, 382 residues (predicted 44 kDa), no signal peptide; N-terminal His6-tag from pET-28a(+) (NheI/XhoI), tag cleavage not mentioned; E. coli BL21(DE3); monomer; primers encode N-terminal MKEHQG and C-terminal RGEA", "T1 sequence (R9L536 entry or part of it)": "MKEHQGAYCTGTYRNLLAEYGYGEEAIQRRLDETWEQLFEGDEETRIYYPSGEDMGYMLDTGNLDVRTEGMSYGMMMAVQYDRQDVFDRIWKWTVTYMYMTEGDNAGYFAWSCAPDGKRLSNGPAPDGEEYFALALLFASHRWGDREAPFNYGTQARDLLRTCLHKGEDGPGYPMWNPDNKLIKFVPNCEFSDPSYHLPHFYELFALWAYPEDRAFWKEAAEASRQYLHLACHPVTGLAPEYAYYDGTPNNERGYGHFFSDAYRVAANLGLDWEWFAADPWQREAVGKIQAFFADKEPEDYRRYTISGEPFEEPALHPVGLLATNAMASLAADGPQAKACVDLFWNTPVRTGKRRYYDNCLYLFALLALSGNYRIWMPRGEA", "assay": "HPLC-RID xylose release, nonlinear regression", "type": "biochemical", "conditions": "competitive; X3 as substrate, 5 mM citrate pH 5.5, 55 °C", "data": [{"smiles": "OC1OC[C@@H](O)[C@H](O)[C@H]1O", "note": "(stereo partly shown) [X, xylose]", "values": [{"measurement": "Ki", "result": "12.9 ± 0.6", "unit": "mM"}]}]}
